Data reported in PubChem BioAssay (NCI).
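All cell lines were grown in 96-well plates and treated with compound for 48 hours. The concentration for 50% growth inhibition is given as GI50. TGI marks complete inhibition of growth.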

Tests used:
Experiment in all cases: DTP human tumour cell line panel, 48 h
HCT-15 colon = tested on: HCT-15 colon
MDA-MB-231 breast = tested on: MDA-MB-231 breast
SK-MEL-2 melanoma = tested on: SK-MEL-2 melanoma
HS 578T breast = tested on: HS 578T breast
SNB-19 CNS = tested on: SNB-19 CNS
SF-295 CNS = tested on: SF-295 CNS
PC-3 prostate = tested on: PC-3 prostate
ACHN renal = tested on: ACHN renal
EKVX NSCLC = tested on: EKVX NSCLC
CCRF-CEM leukemia = tested on: CCRF-CEM leukemia
UO-31 renal = tested on: UO-31 renal
OVCAR-3 ovarian = tested on: OVCAR-3 ovarian
OVCAR-8 ovarian = tested on: OVCAR-8 ovarian
T-47D breast = tested on: T-47D breast
MCF7 breast = tested on: MCF7 breast
CAKI-1 renal = tested on: CAKI-1 renal
K-562 leukemia = tested on: K-562 leukemia
NCI-H522 lung = tested on: NCI-H522 lung
NCI-H460 lung = tested on: NCI-H460 lung
A498 renal = tested on: A498 renal
MOLT-4 leukemia = tested on: MOLT-4 leukemia
HT29 colon = tested on: HT29 colon
UACC-257 melanoma = tested on: UACC-257 melanoma
HOP-62 NSCLC = tested on: HOP-62 NSCLC
NCI/ADR-RES ovarian = tested on: NCI/ADR-RES ovarian
SF-268 CNS = tested on: SF-268 CNS
A549 NSCLC = tested on: A549 NSCLC
M14 melanoma = tested on: M14 melanoma
SR leukemia = tested on: SR leukemia
786-0 renal = tested on: 786-0 renal
HCT-116 colon = tested on: HCT-116 colon
OVCAR-5 ovarian = tested on: OVCAR-5 ovarian
COLO 205 colon = tested on: COLO 205 colon
SN12C renal = tested on: SN12C renal
LOX IMVI melanoma = tested on: LOX IMVI melanoma
SK-MEL-28 melanoma = tested on: SK-MEL-28 melanoma
NCI-H23 lung = tested on: NCI-H23 lung
SK-MEL-5 melanoma = tested on: SK-MEL-5 melanoma
TK-10 renal = tested on: TK-10 renal
MDA-N = tested on: MDA-N
SNB-75 CNS = tested on: SNB-75 CNS
SF-539 CNS = tested on: SF-539 CNS
SW-620 colon = tested on: SW-620 colon
OVCAR-4 ovarian = tested on: OVCAR-4 ovarian
DU-145 prostate = tested on: DU-145 prostate
NCI-H226 lung = tested on: NCI-H226 lung
KM12 colon = tested on: KM12 colon
BT-549 breast = tested on: BT-549 breast
HL-60(TB) leukemia = tested on: HL-60(TB) leukemia
MDA-MB-435 = tested on: MDA-MB-435
UACC-62 melanoma = tested on: UACC-62 melanoma
HCC-2998 colon = tested on: HCC-2998 colon
IGROV1 ovarian = tested on: IGROV1 ovarian
SK-OV-3 ovarian = tested on: SK-OV-3 ovarian
U251 CNS = tested on: U251 CNS
RPMI-8226 leukemia = tested on: RPMI-8226 leukemia
MALME-3M melanoma = tested on: MALME-3M melanoma
HOP-92 NSCLC = tested on: HOP-92 NSCLC

In the case of CCC(Cc1cnc2nc(N)nc(N)c2n1)c1ccc(C(=O)NC(CCC(=O)O)C(=O)O)cc1 (centres undefined), the TGI (HCT-15 colon) was greater than 100 µM, the GI50 (MDA-MB-231 breast) was greater than 100 µM and the TGI (MDA-MB-231 breast) was greater than 100 µM. For the same molecule, the GI50 (SK-MEL-2 melanoma) was greater than 100 µM, the TGI (SK-MEL-2 melanoma) was greater than 100 µM and the TGI (HS 578T breast) was greater than 100 µM. The GI50 (SNB-19 CNS) was 0.0134 µM, the TGI (SNB-19 CNS) was greater than 100 µM and the TGI (SF-295 CNS) was greater than 100 µM. The TGI (PC-3 prostate) was greater than 100 µM, the TGI (ACHN renal) was greater than 100 µM and the GI50 (EKVX NSCLC) was 0.0196 µM. It also gave a TGI (EKVX NSCLC) greater than 100 µM, a TGI (CCRF-CEM leukemia) greater than 100 µM and a TGI (UO-31 renal) greater than 100 µM. It also gave a GI50 (OVCAR-3 ovarian) greater than 100 µM, a TGI (OVCAR-3 ovarian) greater than 100 µM and a TGI (OVCAR-8 ovarian) greater than 100 µM. It also gave a TGI (T-47D breast) greater than 100 µM, a TGI (MCF7 breast) greater than 100 µM and a TGI (CAKI-1 renal) greater than 100 µM. The TGI (K-562 leukemia) was greater than 100 µM, the TGI (NCI-H522 lung) was greater than 100 µM and the TGI (NCI-H460 lung) was greater than 100 µM. For the same molecule, the TGI (A498 renal) was greater than 100 µM, the TGI (MOLT-4 leukemia) was greater than 100 µM and the TGI (HT29 colon) was greater than 100 µM. The TGI (UACC-257 melanoma) was greater than 100 µM, the TGI (HOP-62 NSCLC) was greater than 100 µM and the TGI (NCI/ADR-RES ovarian) was greater than 100 µM. It also gave a TGI (SF-268 CNS) greater than 100 µM, a TGI (A549 NSCLC) greater than 100 µM and a GI50 (M14 melanoma) of 34.5 µM. It also gave a TGI (M14 melanoma) greater than 100 µM, a TGI (SR leukemia) greater than 100 µM and a TGI (786-0 renal) greater than 100 µM. It also gave a TGI (HCT-116 colon) greater than 100 µM, a TGI (OVCAR-5 ovarian) greater than 100 µM and a TGI (COLO 205 colon) greater than 100 µM. It also gave a TGI (SN12C renal) greater than 100 µM, a TGI (LOX IMVI melanoma) greater than 100 µM and a GI50 (SK-MEL-28 melanoma) greater than 100 µM. The TGI (SK-MEL-28 melanoma) was greater than 100 µM, the TGI (NCI-H23 lung) was greater than 100 µM and the TGI (SK-MEL-5 melanoma) was greater than 100 µM. It also gave a TGI (TK-10 renal) greater than 100 µM, a TGI (MDA-N) greater than 100 µM and a TGI (SNB-75 CNS) greater than 100 µM. The TGI (SF-539 CNS) was 1.28 µM, the TGI (SW-620 colon) was greater than 100 µM and the GI50 (OVCAR-4 ovarian) was greater than 100 µM. It also gave a TGI (OVCAR-4 ovarian) greater than 100 µM, a TGI (DU-145 prostate) greater than 100 µM and a GI50 (NCI-H226 lung) greater than 100 µM. The TGI (NCI-H226 lung) was greater than 100 µM, the TGI (KM12 colon) was greater than 100 µM and the TGI (BT-549 breast) was greater than 100 µM. For the same molecule, the TGI (HL-60(TB) leukemia) was greater than 100 µM and the TGI (MDA-MB-435) was greater than 100 µM.

C/C(=N\NC(=O)Nc1ccccc1Cl)c1ccc(O)cc1 showed a TGI (HCT-15 colon) greater than 100 µM, a TGI (UACC-62 melanoma) greater than 100 µM and a TGI (MDA-MB-231 breast) greater than 100 µM. It also gave a TGI (SK-MEL-2 melanoma) greater than 100 µM, a TGI (HS 578T breast) greater than 100 µM and a TGI (SNB-19 CNS) greater than 100 µM. For the same molecule, the TGI (SF-295 CNS) was greater than 100 µM, the TGI (PC-3 prostate) was greater than 100 µM and the TGI (ACHN renal) was greater than 100 µM. For the same molecule, the TGI (EKVX NSCLC) was greater than 100 µM, the TGI (CCRF-CEM leukemia) was greater than 100 µM and the TGI (UO-31 renal) was greater than 100 µM. For the same molecule, the TGI (HCC-2998 colon) was greater than 100 µM, the TGI (OVCAR-3 ovarian) was greater than 100 µM and the TGI (OVCAR-8 ovarian) was greater than 100 µM. For the same molecule, the TGI (T-47D breast) was greater than 100 µM, the TGI (MCF7 breast) was greater than 100 µM and the TGI (CAKI-1 renal) was greater than 100 µM. The TGI (K-562 leukemia) was greater than 100 µM, the TGI (NCI-H522 lung) was greater than 100 µM and the TGI (IGROV1 ovarian) was greater than 100 µM. For the same molecule, the TGI (NCI-H460 lung) was greater than 100 µM, the TGI (MOLT-4 leukemia) was greater than 100 µM and the TGI (HT29 colon) was greater than 100 µM. The TGI (UACC-257 melanoma) was greater than 100 µM, the TGI (NCI/ADR-RES ovarian) was greater than 100 µM and the TGI (SF-268 CNS) was greater than 100 µM. The TGI (A549 NSCLC) was greater than 100 µM, the TGI (M14 melanoma) was greater than 100 µM and the TGI (SR leukemia) was greater than 100 µM. The TGI (786-0 renal) was greater than 100 µM, the TGI (HCT-116 colon) was greater than 100 µM and the TGI (SK-OV-3 ovarian) was greater than 100 µM. The TGI (OVCAR-5 ovarian) was greater than 100 µM, the TGI (COLO 205 colon) was greater than 100 µM and the TGI (SN12C renal) was greater than 100 µM. The TGI (LOX IMVI melanoma) was greater than 100 µM, the TGI (SK-MEL-28 melanoma) was greater than 100 µM and the TGI (NCI-H23 lung) was greater than 100 µM. It also gave a TGI (SK-MEL-5 melanoma) greater than 100 µM, a TGI (TK-10 renal) greater than 100 µM and a TGI (MDA-N) greater than 100 µM. It also gave a TGI (SNB-75 CNS) of 75.8 µM, a TGI (SF-539 CNS) greater than 100 µM and a TGI (U251 CNS) greater than 100 µM. It also gave a TGI (SW-620 colon) greater than 100 µM, a TGI (OVCAR-4 ovarian) greater than 100 µM and a TGI (RPMI-8226 leukemia) greater than 100 µM. For the same molecule, the TGI (DU-145 prostate) was greater than 100 µM, the TGI (NCI-H226 lung) was greater than 100 µM and the TGI (MALME-3M melanoma) was greater than 100 µM. The TGI (KM12 colon) was greater than 100 µM, the TGI (BT-549 breast) was greater than 100 µM and the TGI (HOP-92 NSCLC) was greater than 100 µM. For the same molecule, the TGI (HL-60(TB) leukemia) was greater than 100 µM and the TGI (MDA-MB-435) was greater than 100 µM.

COC(OC)(c1ccccc1)C(Br)Br gave a TGI (HCT-15 colon) of 42.4 µM, a TGI (UACC-62 melanoma) greater than 100 µM and a TGI (MDA-MB-231 breast) greater than 100 µM. For the same molecule, the TGI (SK-MEL-2 melanoma) was greater than 100 µM, the TGI (HS 578T breast) was greater than 100 µM and the TGI (SNB-19 CNS) was greater than 100 µM. The TGI (SF-295 CNS) was greater than 100 µM, the TGI (PC-3 prostate) was greater than 100 µM and the TGI (ACHN renal) was greater than 100 µM. It also gave a TGI (EKVX NSCLC) greater than 100 µM, a TGI (CCRF-CEM leukemia) of 42.6 µM and a TGI (UO-31 renal) greater than 100 µM. It also gave a TGI (HCC-2998 colon) greater than 100 µM, a TGI (OVCAR-3 ovarian) greater than 100 µM and a TGI (OVCAR-8 ovarian) greater than 100 µM. The TGI (T-47D breast) was greater than 100 µM, the TGI (MCF7 breast) was greater than 100 µM and the TGI (CAKI-1 renal) was 48.5 µM. The TGI (K-562 leukemia) was 71.6 µM, the TGI (NCI-H522 lung) was 33 µM and the TGI (IGROV1 ovarian) was greater than 100 µM. The TGI (NCI-H460 lung) was greater than 100 µM, the TGI (A498 renal) was greater than 100 µM and the TGI (MOLT-4 leukemia) was 74.2 µM. It also gave a TGI (HT29 colon) greater than 100 µM, a TGI (UACC-257 melanoma) greater than 100 µM and a TGI (HOP-62 NSCLC) greater than 100 µM. It also gave a TGI (NCI/ADR-RES ovarian) greater than 100 µM, a TGI (SF-268 CNS) greater than 100 µM and a TGI (A549 NSCLC) greater than 100 µM. The TGI (M14 melanoma) was 37.8 µM, the TGI (SR leukemia) was 70.6 µM and the TGI (786-0 renal) was 69.4 µM. It also gave a TGI (HCT-116 colon) of 37.2 µM, a TGI (SK-OV-3 ovarian) greater than 100 µM and a TGI (OVCAR-5 ovarian) greater than 100 µM. For the same molecule, the TGI (COLO 205 colon) was 39.2 µM, the TGI (SN12C renal) was greater than 100 µM and the TGI (LOX IMVI melanoma) was greater than 100 µM. The TGI (SK-MEL-28 melanoma) was greater than 100 µM, the TGI (NCI-H23 lung) was greater than 100 µM and the TGI (SK-MEL-5 melanoma) was greater than 100 µM. It also gave a TGI (MDA-N) greater than 100 µM, a TGI (SNB-75 CNS) greater than 100 µM and a TGI (U251 CNS) greater than 100 µM. For the same molecule, the TGI (SW-620 colon) was 34.5 µM, the TGI (RPMI-8226 leukemia) was greater than 100 µM and the TGI (DU-145 prostate) was greater than 100 µM. For the same molecule, the TGI (NCI-H226 lung) was greater than 100 µM, the TGI (MALME-3M melanoma) was 43.8 µM and the TGI (KM12 colon) was greater than 100 µM. The TGI (BT-549 breast) was greater than 100 µM, the TGI (HL-60(TB) leukemia) was greater than 100 µM and the TGI (MDA-MB-435) was greater than 100 µM.
